What was measured:
Assay type in all cases: in vivo
transplanted rice plant = test: Test Example 1: effect on crop, application before weed generation in submerged conditions (symbol a); details: application herbicide amount 320 g/ha
Outline: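 Rice at 2.5 leaf stage transplanted into submerged soil (4 cm depth) sown with three weed species; herbicide applied before weed emergence.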

[1] = system: Echinochloa crus-galli var. crus-galli; test: Test Example 3: herbicidal effect by foliage application, Wagner pot (symbol H); details: application herbicide amount 320 g/ha
Outline: (§1)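 Alluvial soil was flooded to a depth of 0.1–0.5 cm, seeded with the weeds and rice, and kept in a greenhouse at 25–30 °C. After 14 days of growth, the foliage received a small-sprayer application of emulsion diluted to the intended rate; injury was rated at 3 weeks.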

Leptochloa chinensis = test: Test Example 3: herbicidal effect by foliage application, Wagner pot (symbol D); details: application herbicide amount 320 g/ha
Outline: as §1

[2] = system: directly sowed rice plant; test: Test Example 3: effect on crop by foliage application, Wagner pot (symbol b); details: application herbicide amount 320 g/ha
Outline: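 Alluvial soil in a 1/10000-are Wagner pot was flooded to a water depth of 0.1–0.5 cm. Echinochloa crus-galli var. crus-galli, Leptochloa chinensis, Cyperus difformis and rice were sown into it and grown in a greenhouse at 25–30 °C.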

Digitaria ciliaris = test: Test Example 4: herbicidal effect by soil treatment (symbol F); details: application herbicide amount 320 g/ha
Outline: (§2)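 Seeds were sown in sterilized diluvial soil, covered with about 1.5 cm of soil, and the soil surface was sprayed with a water-diluted emulsion of the compound at a predetermined rate. Plants grew in a greenhouse at 25° C. to 30° C.; effects were scored visually 3 weeks after application.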

Setaria viridis [3] = test: Test Example 4: herbicidal effect by soil treatment (symbol G); details: application herbicide amount 320 g/ha
Outline: as §2

Lolium multiflorum Lam. = test: Test Example 4: herbicidal effect by soil treatment (symbol K); details: application herbicide amount 320 g/ha
Outline: as §2

Apera spica-venti [4] = test: Test Example 4: herbicidal effect by soil treatment (symbol L); details: application herbicide amount 320 g/ha
Outline: as §2

Abutilon theophrasti [5] = test: Test Example 4: herbicidal effect by soil treatment (symbol M); details: application herbicide amount 320 g/ha
Outline: as §2

Amaranthus retroflexus = test: Test Example 4: herbicidal effect by soil treatment (symbol N); details: application herbicide amount 320 g/ha
Outline: as §2

Chenopodium album = test: Test Example 4: herbicidal effect by soil treatment (symbol O); details: application herbicide amount 320 g/ha
Outline: as §2

Stellaria media [6] = test: Test Example 4: herbicidal effect by soil treatment (symbol P); details: application herbicide amount 320 g/ha
Outline: as §2

Galium spurium = test: Test Example 4: herbicidal effect by soil treatment (symbol Q); details: application herbicide amount 320 g/ha
Outline: as §2

Veronica persica = test: Test Example 4: herbicidal effect by soil treatment (symbol R); details: application herbicide amount 320 g/ha
Outline: as §2

Setaria viridis [7] = test: Test Example 5: herbicidal effect by foliage application, plastic box (symbol G); details: 320 g/ha, 3 weeks after application
Outline: (§3)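 Greenhouse foliar test: seedlings at 14 days, grown 25° C. to 30° C. in sterilized diluvial soil; compound applied as an aqueous dilution of an emulsion; response read 3 weeks after spraying.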

[8] = system: Echinochloa crus-galli var. crus-galli; test: Test Example 5: herbicidal effect by foliage application, plastic box (symbol H); details: 320 g/ha, 3 weeks after application
Outline: as §3

Avena fatua = test: Test Example 5: herbicidal effect by foliage application, plastic box (symbol I); details: 320 g/ha, 3 weeks after application
Outline: as §3

Apera spica-venti [9] = test: Test Example 5: herbicidal effect by foliage application, plastic box (symbol L); details: 320 g/ha, 3 weeks after application
Outline: as §3

Abutilon theophrasti [10] = test: Test Example 5: herbicidal effect by foliage application, plastic box (symbol M); details: 320 g/ha, 3 weeks after application
Outline: as §3

Stellaria media [11] = test: Test Example 5: herbicidal effect by foliage application, plastic box (symbol P); details: 320 g/ha, 3 weeks after application
Outline: as §3

rice plant = test: Test Example 5: effect on crop by foliage application, plastic box (symbol b); details: 320 g/ha, 3 weeks after application
Outline: (§4)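 Crop seed is sown alongside grass and broadleaf weed species in spots in sterilized diluvial soil, then covered to a depth of about 1.5 cm. Plants grow in a greenhouse kept at 25° C. to 30° C.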

beet = test: Test Example 5: effect on crop by foliage application, plastic box (symbol f); details: 320 g/ha, 3 weeks after application
Outline: as §4

rapeseed = test: Test Example 5: effect on crop by foliage application, plastic box (symbol g); details: 320 g/ha, 3 weeks after application
Outline: as §4

| Structure (SMILES) | Effect grade on crop, a: transplanted rice plant (transplanted rice plant) | herbicidal effect on H (Echinochloa crus-galli var. crus-galli), grade 0-5 [1] | herbicidal effect on D (Leptochloa chinensis), grade 0-5 (Leptochloa chinensis) | effect on crop b (directly sowed rice plant), grade 0-5 [2] | Herbicidal effect grade, F: Digitaria ciliaris (Digitaria ciliaris) | Herbicidal effect grade, G: Setaria viridis (Setaria viridis [3]) | Herbicidal effect grade, K: Lolium multiflorum Lam. (Lolium multiflorum Lam.) | Herbicidal effect grade, L: Apera spica-venti (Apera spica-venti [4]) | Herbicidal effect grade, M: Abutilon theophrasti (Abutilon theophrasti [5]) | Herbicidal effect grade, N: Amaranthus retroflexus (Amaranthus retroflexus) | Herbicidal effect grade, O: Chenopodium album (Chenopodium album) | Herbicidal effect grade, P: Stellaria media (Stellaria media [6]) | Herbicidal effect grade, Q: Galium spurium (Galium spurium) | Herbicidal effect grade, R: Veronica persica (Veronica persica) | G: Setaria viridis, herbicidal effect (criteria of Test Example 1) (Setaria viridis [7]) | H: Echinochloa crus-galli var. crus-galli, herbicidal effect (criteria of Test Example 1) [8] | I: Avena fatua, herbicidal effect (criteria of Test Example 1) (Avena fatua) | L: Apera spica-venti, herbicidal effect (criteria of Test Example 1) (Apera spica-venti [9]) | M: Abutilon theophrasti, herbicidal effect (criteria of Test Example 1) (Abutilon theophrasti [10]) | P: Stellaria media, herbicidal effect (criteria of Test Example 1) (Stellaria media [11]) | also measured |
| --- | --- | --- | --- | --- | --- | --- | --- | --- | --- | --- | --- | --- | --- | --- | --- | --- | --- | --- | --- | --- | --- |
| CC(=O)CC1CC(O)=C(c2c(C)cc(OCc3ccccc3)cc2C)C1=O (stereo not drawn) [7-018] | 2 (Herbicidal ratio of 20% or higher and lower than 40%) | 3 (Herbicidal ratio of 40% or higher and lower than 70%) | 5 (Herbicidal ratio of 90% or more (almost completely withered)) | 3 (Herbicidal ratio of 40% or higher and lower than 70%) | 3 (Herbicidal ratio of 40% or higher and lower than 70%) | 1 (Herbicidal ratio of 5% or higher and lower than 20%) | 0 (Herbicidal ratio of 5% or lower (almost no effect)) | 0 (Herbicidal ratio of 5% or lower (almost no effect)) | 0 (Herbicidal ratio of 5% or lower (almost no effect)) | 0 (Herbicidal ratio of 5% or lower (almost no effect)) | 0 (Herbicidal ratio of 5% or lower (almost no effect)) | 0 (Herbicidal ratio of 5% or lower (almost no effect)) | 0 (Herbicidal ratio of 5% or lower (almost no effect)) | 0 (Herbicidal ratio of 5% or lower (almost no effect)) | 4 (Herbicidal ratio of 70% or higher and lower than 90%) | 4 (Herbicidal ratio of 70% or higher and lower than 90%) | 0 (Herbicidal ratio of 5% or lower (almost no effect)) | 2 (Herbicidal ratio of 20% or higher and lower than 40%) | 0 (Herbicidal ratio of 5% or lower (almost no effect)) | 0 (Herbicidal ratio of 5% or lower (almost no effect)) | b: directly sowed rice plant, effect on crop (criteria of Test Example 1) (rice plant): 2 (Herbicidal ratio of 20% or higher and lower than 40%); f: beet, effect on crop (criteria of Test Example 1) (beet): 0 (Herbicidal ratio of 5% or lower (almost no effect)); g: rapeseed, effect on crop (criteria of Test Example 1) (rapeseed): 0 (Herbicidal ratio of 5% or lower (almost no effect)) |
| CC(=O)CC1CC(O)=C(c2c(C)cc(Oc3ccc(C(F)(F)F)cn3)cc2C)C1=O (stereo not drawn) [7-019] | 0 (Herbicidal ratio of 5% or lower (almost no effect)) | 5 (Herbicidal ratio of 90% or more (almost completely withered)) | 4 (Herbicidal ratio of 70% or higher and lower than 90%) | 3 (Herbicidal ratio of 40% or higher and lower than 70%) | 3 (Herbicidal ratio of 40% or higher and lower than 70%) | 2 (Herbicidal ratio of 20% or higher and lower than 40%) | 0 (Herbicidal ratio of 5% or lower (almost no effect)) | 0 (Herbicidal ratio of 5% or lower (almost no effect)) | 0 (Herbicidal ratio of 5% or lower (almost no effect)) | 0 (Herbicidal ratio of 5% or lower (almost no effect)) | 0 (Herbicidal ratio of 5% or lower (almost no effect)) | 0 (Herbicidal ratio of 5% or lower (almost no effect)) | 0 (Herbicidal ratio of 5% or lower (almost no effect)) | 0 (Herbicidal ratio of 5% or lower (almost no effect)) | 3 (Herbicidal ratio of 40% or higher and lower than 70%) | 4 (Herbicidal ratio of 70% or higher and lower than 90%) | 0 (Herbicidal ratio of 5% or lower (almost no effect)) | 3 (Herbicidal ratio of 40% or higher and lower than 70%) | 0 (Herbicidal ratio of 5% or lower (almost no effect)) | 0 (Herbicidal ratio of 5% or lower (almost no effect)) | b: directly sowed rice plant, effect on crop (criteria of Test Example 1) (rice plant): 1 (Herbicidal ratio of 5% or higher and lower than 20%); f: beet, effect on crop (criteria of Test Example 1) (beet): 0 (Herbicidal ratio of 5% or lower (almost no effect)); g: rapeseed, effect on crop (criteria of Test Example 1) (rapeseed): 2 (Herbicidal ratio of 20% or higher and lower than 40%) |
| COc1cc(C)c(C2=C(O)CC(CC(C)=O)C2=O)c(C)c1 (stereo not drawn) [7-020] | 2 (Herbicidal ratio of 20% or higher and lower than 40%) | 4 (Herbicidal ratio of 70% or higher and lower than 90%) | 5 (Herbicidal ratio of 90% or more (almost completely withered)) | 4 (Herbicidal ratio of 70% or higher and lower than 90%) | 3 (Herbicidal ratio of 40% or higher and lower than 70%) | 2 (Herbicidal ratio of 20% or higher and lower than 40%) | 3 (Herbicidal ratio of 40% or higher and lower than 70%) | 0 (Herbicidal ratio of 5% or lower (almost no effect)) | 0 (Herbicidal ratio of 5% or lower (almost no effect)) | 0 (Herbicidal ratio of 5% or lower (almost no effect)) | 0 (Herbicidal ratio of 5% or lower (almost no effect)) | 0 (Herbicidal ratio of 5% or lower (almost no effect)) | 0 (Herbicidal ratio of 5% or lower (almost no effect)) | 0 (Herbicidal ratio of 5% or lower (almost no effect)) | 3 (Herbicidal ratio of 40% or higher and lower than 70%) | 4 (Herbicidal ratio of 70% or higher and lower than 90%) | 0 (Herbicidal ratio of 5% or lower (almost no effect)) | 3 (Herbicidal ratio of 40% or higher and lower than 70%) | 0 (Herbicidal ratio of 5% or lower (almost no effect)) | 0 (Herbicidal ratio of 5% or lower (almost no effect)) | b: directly sowed rice plant, effect on crop (criteria of Test Example 1) (rice plant): 3 (Herbicidal ratio of 40% or higher and lower than 70%); f: beet, effect on crop (criteria of Test Example 1) (beet): 0 (Herbicidal ratio of 5% or lower (almost no effect)); g: rapeseed, effect on crop (criteria of Test Example 1) (rapeseed): 2 (Herbicidal ratio of 20% or higher and lower than 40%) |

Source: patent US11000033B2, “Ketone or oxime compound, and herbicide” (NISSAN CHEMICAL CORPORATION, priority 2014, dated 2021)
